Paper PMC10035947, “Development of novel anilinoquinazoline-based carboxylic acids as non-classical carbonic anhydrase IX and XII inhibitors” (Journal of Enzyme Inhibition and Medicinal Chemistry, 2023)

Assays:
SF-295 = experiment: NCI SRB assay; assay type: cell-based, human; settings: for GI%: SF-295, 10 μM; for Growth Percent: SF-295, 1.00E-5 Molar
MDA-MB-468 = experiment: NCI SRB assay; assay type: cell-based, human; settings: for GI%: MDA-MB-468, 10 μM; for Growth Percent: MDA-MB-468, 1.00E-5 Molar
hCA II = molecular target: T1, hCA II (Homo sapiens, UniProt P00918); experiment: stopped flow CO2 hydrase assay; assay type: biochemical; settings: mean from 3 assays
T1 construct: made in house
Summary of the method: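 Stopped-flow CO2 hydration with phenol red (0.2 mM) at 557 nm in 20 mM Hepes pH 7.5, 20 mM Na2SO4, CO2 1.7–17 mM, recombinant enzyme. Inhibitor preincubated 15 min at room temperature; uncatalyzed rate subtracted, Ki via Cheng-Prusoff, mean of ≥3 determinations.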

K-562 = experiment: NCI SRB assay; assay type: cell-based, human; settings: for GI%: K-562, 10 μM; for Growth Percent: K-562, 1.00E-5 Molar
HOP-62 = experiment: NCI SRB assay; assay type: cell-based, human; settings: for GI%: HOP-62, 10 μM; for Growth Percent: HOP-62, 1.00E-5 Molar
OVCAR-8 = experiment: NCI SRB assay; assay type: cell-based, human; settings: for GI%: OVCAR-8, 10 μM; for Growth Percent: OVCAR-8, 1.00E-5 Molar
NCI-H522 = experiment: NCI SRB assay; assay type: cell-based, human; settings: for GI%: NCI-H522, 10 μM; for Growth Percent: NCI-H522, 1.00E-5 Molar
SNB-75 = experiment: NCI SRB assay; assay type: cell-based, human; settings: for GI%: SNB-75, 10 μM; for Growth Percent: SNB-75, 1.00E-5 Molar
[1] = test system: 59 human cancer cell lines representing nine tumour subpanels; experiment: NCI SRB assay, panel and subpanel summaries; settings: all cell lines; for Mean GI %: 10 μM; for Mean Growth Percent: 1.00E-5 Molar
CCRF-CEM = experiment: NCI SRB assay; assay type: cell-based, human; settings: for GI%: 10 μM; for Growth Percent: 1.00E-5 Molar
M14 = experiment: NCI SRB assay; assay type: cell-based, human; settings: for GI%: M14, 10 μM; for Growth Percent: M14, 1.00E-5 Molar
A498 = experiment: NCI SRB assay; assay type: cell-based, human; settings: for GI%: A498, 10 μM; for Growth Percent: A498, 1.00E-5 Molar
NCI-H322M = experiment: NCI SRB assay; assay type: cell-based, human; settings: for GI%: 10 μM; for Growth Percent: 1.00E-5 Molar
SN12C = experiment: NCI SRB assay; assay type: cell-based, human; settings: SN12C; for Growth Percent: 1.00E-5 Molar; for GI%: 10 μM
SF-268 = experiment: NCI SRB assay; assay type: cell-based, human; settings: for GI%: SF-268, 10 μM; for Growth Percent: SF-268, 1.00E-5 Molar
NCI-H23 = experiment: NCI SRB assay; assay type: cell-based, human; settings: for GI%: NCI-H23, 10 μM; for Growth Percent: NCI-H23, 1.00E-5 Molar
TK-10 = experiment: NCI SRB assay; assay type: cell-based, human; settings: for Growth Percent: TK-10, 1.00E-5 Molar; for GI%: TK-10, 10 μM
HOP-92 = experiment: NCI SRB assay; assay type: cell-based, human; settings: for GI%: HOP-92, 10 μM; for Growth Percent: HOP-92, 1.00E-5 Molar
HCT-116 = experiment: NCI SRB assay; assay type: cell-based, human; settings: for GI%: HCT-116, 10 μM; for Growth Percent: HCT-116, 1.00E-5 Molar
MCF7 = experiment: NCI SRB assay; assay type: cell-based, human; settings: for GI%: MCF7, 10 μM; for Growth Percent: MCF7, 1.00E-5 Molar
PC-3 = experiment: NCI SRB assay; assay type: cell-based, human; settings: for GI%: PC-3, 10 μM; for Growth Percent: PC-3, 1.00E-5 Molar
CAKI-1 = experiment: NCI SRB assay; assay type: cell-based, human; settings: for GI%: CAKI-1, 10 μM; for Growth Percent: CAKI-1, 1.00E-5 Molar
DU-145 = experiment: NCI SRB assay; assay type: cell-based, human; settings: for GI%: DU-145, 10 μM; for Growth Percent: DU-145, 1.00E-5 Molar
SK-MEL-5 = experiment: NCI SRB assay; assay type: cell-based, human; settings: for GI%: SK-MEL-5, 10 μM; for Growth Percent: SK-MEL-5, 1.00E-5 Molar
HL-60(TB) = experiment: NCI SRB assay; assay type: cell-based, human; settings: HL-60(TB); for GI%: 10 μM; for Growth Percent: 1.00E-5 Molar
SNB-19 = experiment: NCI SRB assay; assay type: cell-based, human; settings: for GI%: SNB-19, 10 μM; for Growth Percent: SNB-19, 1.00E-5 Molar

SMILES: COc1ccc(-c2nc(Nc3ccccc3C(=O)O)c3ccccc3n2)cc1 [6c, 2-((2–(4-Methoxyphenyl)quinazolin-4-yl)amino)benzoic acid]
- GI% (SF-295): 60%
- Growth Percent (SF-295): 39.93%
- GI% (MDA-MB-468): 57%
- Growth Percent (MDA-MB-468): 42.97%
- Ki (hCA II): 83.1 µM
- GI% (K-562): 69%
- Growth Percent (K-562): 31.34%
- GI% (HOP-62): 49%
- Growth Percent (HOP-62): 51.05%
- GI% (OVCAR-8): 40%
- Growth Percent (OVCAR-8): 60.14%
- GI% (NCI-H522): 63%
- Growth Percent (NCI-H522): 37.29%
- GI% (SNB-75): 68%
- Growth Percent (SNB-75): 32.48%
- Mean GI % [1]: 52%
- Mean Growth Percent [1]: 48.18%
- GI% (CCRF-CEM): 58%
- Growth Percent (CCRF-CEM): 42.05%
- GI% (M14): 48%
- Growth Percent (M14): 52.09%
- GI% (A498): 41%
- Growth Percent (A498): 58.92%
- GI% (NCI-H322M): 24%
- Growth Percent (NCI-H322M): 75.73%
- Growth Percent (SN12C): 47.71%
- GI% (SF-268): 43%
- Growth Percent (SF-268): 56.93%
- GI% (NCI-H23): 38%
- Growth Percent (NCI-H23): 62.10%
- Growth Percent (TK-10): 74.99%
- GI% (HOP-92): 78%
- Growth Percent (HOP-92): 21.82%
- GI% (HCT-116): 62%
- Growth Percent (HCT-116): 37.54%
- GI% (MCF7): 49%
- Growth Percent (MCF7): 51.24%
- GI% (PC-3): 60%
- Growth Percent (PC-3): 40.04%
- GI% (CAKI-1): 53%
- Growth Percent (CAKI-1): 46.89%
- GI% (DU-145): 43%
- Growth Percent (DU-145): 56.86%
- GI% (SK-MEL-5): 70%
- Growth Percent (SK-MEL-5): 30.49%
- GI% (HL-60(TB)): 67%
- Growth Percent (HL-60(TB)): 32.98%
- GI% (SNB-19): 55%
- Growth Percent (SNB-19): 45.59%

SMILES: Cc1ccc(-c2nc(Nc3cccc(C(=O)O)c3)c3ccccc3n2)cc1 [7b, 3-((2-(p-Tolyl)quinazolin-4-yl)amino)benzoic acid]
- GI% (SF-295): 34%
- Growth Percent (SF-295): 65.90%
- GI% (MDA-MB-468): – (Only GI% higher than 20% are shown)
- Growth Percent (MDA-MB-468): 116.40%
- Ki (hCA II): 41.7 µM
- GI% (K-562): 20%
- Growth Percent (K-562): 80.06%
- GI% (HOP-62): – (Only GI% higher than 20% are shown)
- Growth Percent (HOP-62): 84.19%
- GI% (OVCAR-8): – (Only GI% higher than 20% are shown)
- Growth Percent (OVCAR-8): 91.56%
- GI% (NCI-H522): – (Only GI% higher than 20% are shown)
- Growth Percent (NCI-H522): 86.87%
- GI% (SNB-75): – (Only GI% higher than 20% are shown)
- Growth Percent (SNB-75): 91.06%
- Mean GI % [1]: 14%
- Mean Growth Percent [1]: 86.13%
- GI% (CCRF-CEM): 21%
- Growth Percent (CCRF-CEM): 78.66%
- GI% (M14): – (Only GI% higher than 20% are shown)
- Growth Percent (M14): 83.59%
- GI% (A498): – (Only GI% higher than 20% are shown)
- Growth Percent (A498): 95.15%
- GI% (NCI-H322M): – (Only GI% higher than 20% are shown)
- Growth Percent (NCI-H322M): 99.74%
- GI% (SN12C): 23%
- Growth Percent (SN12C): 76.64%
- GI% (SF-268): 31%
- Growth Percent (SF-268): 69.32%
- GI% (NCI-H23): – (Only GI% higher than 20% are shown)
- Growth Percent (NCI-H23): 95.42%
- GI% (TK-10): – (Only GI% higher than 20% are shown)
- Growth Percent (TK-10): 115.15%
- GI% (HOP-92): 29%
- Growth Percent (HOP-92): 71.46%
- GI% (HCT-116): 26%
- Growth Percent (HCT-116): 74.42%
- GI% (MCF7): – (Only GI% higher than 20% are shown)
- Growth Percent (MCF7): 85.28%
- GI% (PC-3): – (Only GI% higher than 20% are shown)
- Growth Percent (PC-3): 80.52%
- GI% (CAKI-1): – (Only GI% higher than 20% are shown)
- Growth Percent (CAKI-1): 82.90%
- GI% (DU-145): – (Only GI% higher than 20% are shown)
- Growth Percent (DU-145): 96.55%
- GI% (SK-MEL-5): – (Only GI% higher than 20% are shown)
- Growth Percent (SK-MEL-5): 85.67%
- GI% (HL-60(TB)): – (Only GI% higher than 20% are shown)
- Growth Percent (HL-60(TB)): 85.11%
- GI% (SNB-19): 28%
- Growth Percent (SNB-19): 71.76%

SMILES: Cc1cccc(-c2nc(Nc3ccc(C(=O)O)cc3)c3ccccc3n2)c1 [8a, 4-((2-(m-Tolyl)quinazolin-4-yl)amino)benzoic acid]
- GI% (SF-295): 36%
- Growth Percent (SF-295): 63.92%
- GI% (MDA-MB-468): – (Only GI% higher than 20% are shown)
- Growth Percent (MDA-MB-468): 113.23%
- Ki (hCA II): 9.3 µM
- GI% (K-562): – (Only GI% higher than 20% are shown)
- Growth Percent (K-562): 80.44%
- GI% (HOP-62): – (Only GI% higher than 20% are shown)
- Growth Percent (HOP-62): 95.14%
- GI% (OVCAR-8): – (Only GI% higher than 20% are shown)
- Growth Percent (OVCAR-8): 82.44%
- GI% (NCI-H522): – (Only GI% higher than 20% are shown)
- Growth Percent (NCI-H522): 87.55%
- GI% (SNB-75): – (Only GI% higher than 20% are shown)
- Growth Percent (SNB-75): 100.40%
- Mean GI % [1]: 16%
- Mean Growth Percent [1]: 84.51%
- GI% (CCRF-CEM): 25%
- Growth Percent (CCRF-CEM): 74.58%
- GI% (M14): – (Only GI% higher than 20% are shown)
- Growth Percent (M14): 88.98%
- GI% (A498): 54%
- Growth Percent (A498): 45.68%
- GI% (NCI-H322M): – (Only GI% higher than 20% are shown)
- Growth Percent (NCI-H322M): 103.28%
- GI% (SN12C): 42%
- Growth Percent (SN12C): 58.07%
- GI% (SF-268): 37%
- Growth Percent (SF-268): 62.51%
- Growth Percent (NCI-H23): 99.04%
- GI% (TK-10): – (Only GI% higher than 20% are shown)
- Growth Percent (TK-10): 91.50%
- GI% (HOP-92): 29%
- Growth Percent (HOP-92): 71.13%
- GI% (HCT-116): – (Only GI% higher than 20% are shown)
- Growth Percent (HCT-116): 81.80%
- GI% (MCF7): – (Only GI% higher than 20% are shown)
- Growth Percent (MCF7): 88.63%
- GI% (PC-3): – (Only GI% higher than 20% are shown)
- Growth Percent (PC-3): 83.31%
- GI% (CAKI-1): – (Only GI% higher than 20% are shown)
- Growth Percent (CAKI-1): 94.53%
- GI% (DU-145): – (Only GI% higher than 20% are shown)
- Growth Percent (DU-145): 87.83%
- GI% (SK-MEL-5): 29%
- Growth Percent (SK-MEL-5): 71.03%
- GI% (HL-60(TB)): – (Only GI% higher than 20% are shown)
- Growth Percent (HL-60(TB)): 92.72%
- GI% (SNB-19): 33%
- Growth Percent (SNB-19): 67.24%
